The text below walks through data of patent US9120749B2, “Quinoline derivatives and MELK inhibitors containing the same” (ONCOTHERAPY SCIENCE, INC., priority 2010, dated 2015).

Experiment [1] relates to 22Rv1 cells. Put plainly: Cell-based assay: anti-proliferative activity, Cell Counting Kit-8, 72 hours (22Rv1). Conditions: Homo sapiens. Background: Tetrazolium dyes change colour on reduction, which living cells bring about.
Experiment [2] relates to A549 cells. Put plainly: Cell-based assay: anti-proliferative activity, Cell Counting Kit-8, 72 hours (A549). Conditions: Homo sapiens, A549, 72 h, 72 hours. Summed up:
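A549 cells seeded in 96-well plates and exposed to candidate inhibitors for 72 hours. Growth measured with Cell Counting Kit-8; IC50 values calculated from the dose response.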

Experiment [3] concerns DU4475 cells. The experiment in a line: Cell-based assay: anti-proliferative activity, Cell Counting Kit-8, 72 hours (DU4475). Conditions: Homo sapiens, DU-4475.
Experiment [4] deals with HT-1197 cells. The experiment in a line: Cell-based assay: anti-proliferative activity, Cell Counting Kit-8, 72 hours (HT-1197, negative control without MELK expression). Conditions: Homo sapiens, HT1197, 72 h, HT1197 cells (negative control), 72 hours. Summed up: (§1)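 IC50 values come from CCK-8 growth measurements taken 72 hours post-treatment of plated cells with test compounds. Expression of MELK across the panel was assessed through immunoblot of unfractionated lysates.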

Experiment [5] has as its target MELK (Homo sapiens, UniProt Q14680). Put plainly: Kinase assay: MELK activity, phosphorylation of FITC-labeled histone H3 peptide measured by IMAP fluorescence polarization. Conditions: MELK kinase assay, IMAP fluorescence polarization, 50 micro-M ATP; read-out: IC50 (μM) (kinase assay). It counts as biochemical. In short, it runs like this:
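Substrate is FITC-labeled histone H3 peptide. Compounds come from a 12.5 mM DMSO stock, diluted so assay DMSO is 1%. The stop step adds threefold-volume progressive binding solution, followed by 0.5 h at room temperature and an FP read.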
In general terms: In fluorescence polarisation assays a small probe gives low polarisation when free and higher when bound to something large.

For experiment [6], the system named is T47D cells. The experiment in a line: Cell-based assay: anti-proliferative activity, Cell Counting Kit-8, 72 hours (T47D). Conditions: Homo sapiens, T47D, 72 h. Summed up:
as §1

As usually defined, the IC50 is the concentration that inhibits the measured activity by half.

Structures are written as SMILES. Structures can show the parent of a compound that is named as a salt.

Sequence of MELK (Q14680 whole entry, looked up): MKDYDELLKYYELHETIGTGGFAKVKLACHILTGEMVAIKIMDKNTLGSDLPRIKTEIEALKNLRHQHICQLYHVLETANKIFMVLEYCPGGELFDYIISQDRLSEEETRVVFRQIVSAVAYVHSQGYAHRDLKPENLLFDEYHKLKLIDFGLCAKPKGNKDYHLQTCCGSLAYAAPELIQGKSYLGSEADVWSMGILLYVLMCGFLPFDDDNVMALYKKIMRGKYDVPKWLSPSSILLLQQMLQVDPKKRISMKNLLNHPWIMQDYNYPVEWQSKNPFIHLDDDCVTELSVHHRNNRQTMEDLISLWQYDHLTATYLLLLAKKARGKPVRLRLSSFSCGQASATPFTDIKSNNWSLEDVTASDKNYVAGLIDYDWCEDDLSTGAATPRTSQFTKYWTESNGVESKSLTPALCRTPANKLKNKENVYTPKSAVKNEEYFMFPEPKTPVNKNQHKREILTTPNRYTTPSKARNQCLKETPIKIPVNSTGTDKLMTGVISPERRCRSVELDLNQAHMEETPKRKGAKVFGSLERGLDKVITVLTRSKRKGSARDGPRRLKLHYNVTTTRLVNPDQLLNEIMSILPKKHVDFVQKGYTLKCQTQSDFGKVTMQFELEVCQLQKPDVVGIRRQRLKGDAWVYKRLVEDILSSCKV

With `CC(=O)c1cnc2ccc(-c3cc(Cl)c(O)c(Cl)c3)cc2c1N[C@H]1CC[C@H](NC(=O)C2CCCN2C)CC1` (stereo partly drawn) [Example 875, N-(1R,4R)-4-((3-acetyl-6-(3,5-dichloro-4-hydroxyphenyl)quinolin-4-yl)amino)cyclohexyl)-1-methylpyrrolidine-2-carboxamide hydrochloride], the IC50 in experiment [1] came out at 0.29 µM; in experiment [2], 0.24 µM; in experiment [3], 0.21 µM; in experiment [4], 4.4 µM; in experiment [5], 0.0035 µM; in experiment [6], 0.14 µM.

`CS(=O)(=O)c1cnc2ccc(-c3cc(F)c(O)c(Cl)c3)cc2c1Nc1cccc(CCN2CCCC2)c1` [Example 879, 2-chloro-6-fluoro-4-(3-(methylsulfonyl)-4-((3-(2-(pyrrolidin-1-yl)ethyl)phenyl)amino)quinolin-6-yl)phenol hydrochloride]: the IC50 in experiment [1] turned out to be 3 µM; in experiment [2], 3.8 µM; in experiment [3] it was 0.9 µM; in experiment [4] it was 9 µM; in experiment [5], 0.011 µM; in experiment [6], 1.1 µM.

For `COc1cc(-c2ccc3ncc(C(=O)C4CCCC4)c(N[C@H]4CC[C@H](CN(C)C)CC4)c3c2)cc(Cl)c1O` [Example 916, (6-(3-chloro-4-hydroxy-5-methoxy-phenyl)-4-((1R,4R)-4-((dimethyl-amino)methyl)cyclohexyl)amino) quinolin-3-yl)(cyclopentyl) methanone hydrochloride], the IC50 in experiment [1] is 1.5 µM; in experiment [2], 1.1 µM; in experiment [3], 1 µM; in experiment [4], 3.1 µM; in experiment [5], 0.0048 µM; in experiment [6] it was 1.2 µM.

Consider `CC(=O)c1cnc2ccc(-c3cc(Cl)c(O)c(Cl)c3)cc2c1N[C@H]1CC[C@H](NC(=O)C(N)C(C)C)CC1` (some centres unmarked) [Example 915], for which the IC50 turned out to be 0.099 µM in experiment [1]; 0.29 µM in experiment [2]; 0.062 µM in experiment [3]; 3.5 µM in experiment [4]; 0.0031 µM in experiment [5]; 0.053 µM in experiment [6].

Turning to `CS(=O)(=O)c1cnc2ccc(-c3cc(F)c(O)c(Cl)c3)cc2c1N[C@H]1CC[C@H](CN2CCCC2)CC1` [Example 891, 2-chloro-6-fluoro-4-(3-(methylsulfonyl)-4-((1R,4R)-4-(pyrrolidin-1-ylmethyl)cyclohexyl)amino)quinolin-6-yl)phenol hydrochloride], the IC50 turned out to be 0.92 µM in experiment [1]; 1.3 µM in experiment [2]; 0.46 µM in experiment [3]; 2.4 µM in experiment [4]; 0.0095 µM in experiment [5]; 0.73 µM in experiment [6].

For `CC(=O)c1cnc2ccc(-c3cc(F)c(O)c(Cl)c3)cc2c1Nc1cnc(C)c(CCN2CCCC2)c1` [Example 867, 1-(6-(3-chloro-5-fluoro-4-hydroxyphenyl)-4-((6-methyl-5-(2-(pyrrolidin-1-yl)ethyl)pyridin-3-yl)amino)quinolin-3-yl)ethanone], the IC50 in experiment [1] is 4.6 µM; in experiment [2], 1.6 µM; in experiment [3], 1.3 µM; in experiment [4], 53 µM; in experiment [5], 0.014 µM; in experiment [6], 2.9 µM.

Consider `O=C(c1cnc2ccc(-c3cc(Cl)c(O)c(Cl)c3)cc2c1Nc1cccc(CCN2CCCC2)c1)C1CCCC1` [Example 927, cyclopentyl(6-(3,5-dichloro-4-hydroxy-phenyl)-4-((3-(2-(pyrrolidin-1-yl)ethyl)phenyl)amino)quinolin-3-yl) methanone hydrochloride], for which the IC50 amounted to 0.78 µM in experiment [1]; 0.71 µM in experiment [2]; 0.48 µM in experiment [3]; 12 µM in experiment [4]; 1.3 µM in experiment [6].
